Source: patent US20170030929A1, “DIAGNOSIS OF CHRONIC KIDNEY DISEASE BY QUANTITATIVE ANALYSIS OF POST-TRANSLATIONAL MODIFICATIONS OF PLASMA PROTEINS” (EXCORLAB GMBH, priority 2014, published 2017)

Experiments:
albumin = albumin (Homo sapiens, UniProt P02768); conditions: literature references; cited from earlier work
[1] = target: in-vitro guanidylated albumin (Homo sapiens, UniProt P02768); assay: Effect of in-vitro guanidylation on protein bound fraction of albumin; conditions: albumin 75 μmol l^−1, ligand 7.5 μmol l^−1; over time of guanidylation (0-48 h)
in-vitro guanidylated albumin, sequence (P02768 25-609): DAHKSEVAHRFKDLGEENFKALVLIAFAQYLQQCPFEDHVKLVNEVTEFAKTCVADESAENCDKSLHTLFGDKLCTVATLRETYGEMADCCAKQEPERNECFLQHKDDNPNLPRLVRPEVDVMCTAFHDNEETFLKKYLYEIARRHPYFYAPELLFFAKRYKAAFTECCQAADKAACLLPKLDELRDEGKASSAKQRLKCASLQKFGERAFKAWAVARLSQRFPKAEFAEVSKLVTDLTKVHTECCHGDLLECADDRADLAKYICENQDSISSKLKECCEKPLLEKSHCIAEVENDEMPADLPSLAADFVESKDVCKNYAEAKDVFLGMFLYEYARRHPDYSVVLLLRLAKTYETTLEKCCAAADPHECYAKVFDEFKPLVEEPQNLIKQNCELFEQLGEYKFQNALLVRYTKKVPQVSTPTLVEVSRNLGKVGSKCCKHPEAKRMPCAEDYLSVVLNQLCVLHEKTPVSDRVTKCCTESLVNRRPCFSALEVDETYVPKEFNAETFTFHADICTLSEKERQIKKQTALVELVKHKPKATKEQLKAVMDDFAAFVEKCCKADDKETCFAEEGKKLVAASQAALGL

albumin, sequence (P02768 25-609): as above

decrease of binding of albumin caused by in-vitro guanidylation [1]: 81%
Structure (SMILES): N[C@@H](Cc1c[nH]c2ccccc12)C(=O)O [L-tryptophan]
affinity to post-translational modified albumin as compared to indoxyl sulfate (albumin): more than two orders of magnitude lower affinity
